Measurements as given in patent publication US12139492B2 (Endotarget Inc., priority 2021, dated 2024).
Read-outs that look alike come from different tables or passages of the source.

Experiments:
[1] = target: BTK (Homo sapiens, UniProt Q06187); assay: Degradation of BTK protein in Namalwa cells (Western blot; DC50, Dmax); conditions: for DC50: cell line not given
[2] = system: Mino cells; assay: Antiproliferative effect, MTS cell viability assay, Mino cells; type: cell-based; conditions: Homo sapiens, MINO, Mino mantle cell lymphoma cells; read-out: IC50 (anti-proliferation) Mino cells
Summary of the method: (§1)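 Steps: seed B-cell lymphoma line; add compound at 0, 0.001, 0.01, 0.1, 1 or 10 μM; incubate 72 h; add MTS and read reduced tetrazolium (formazan) absorbance at 490 nm.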

[3] = system: JeKo-1 cells; assay: Antiproliferative effect, MTS cell viability assay, JeKo-1 cells; type: cell-based; conditions: Homo sapiens; JeKo-1 mantle cell lymphoma cells; read-out: IC50 (anti-proliferation) JeKO-1 cells
Summary of the method: as §1

[4] = read-out: DC50 (BTK degradation), concentration giving 50% reduction of BTK expression level
[5] = read-out: Dmax (BTK degradation)

Chain of BTK (Q06187 whole entry): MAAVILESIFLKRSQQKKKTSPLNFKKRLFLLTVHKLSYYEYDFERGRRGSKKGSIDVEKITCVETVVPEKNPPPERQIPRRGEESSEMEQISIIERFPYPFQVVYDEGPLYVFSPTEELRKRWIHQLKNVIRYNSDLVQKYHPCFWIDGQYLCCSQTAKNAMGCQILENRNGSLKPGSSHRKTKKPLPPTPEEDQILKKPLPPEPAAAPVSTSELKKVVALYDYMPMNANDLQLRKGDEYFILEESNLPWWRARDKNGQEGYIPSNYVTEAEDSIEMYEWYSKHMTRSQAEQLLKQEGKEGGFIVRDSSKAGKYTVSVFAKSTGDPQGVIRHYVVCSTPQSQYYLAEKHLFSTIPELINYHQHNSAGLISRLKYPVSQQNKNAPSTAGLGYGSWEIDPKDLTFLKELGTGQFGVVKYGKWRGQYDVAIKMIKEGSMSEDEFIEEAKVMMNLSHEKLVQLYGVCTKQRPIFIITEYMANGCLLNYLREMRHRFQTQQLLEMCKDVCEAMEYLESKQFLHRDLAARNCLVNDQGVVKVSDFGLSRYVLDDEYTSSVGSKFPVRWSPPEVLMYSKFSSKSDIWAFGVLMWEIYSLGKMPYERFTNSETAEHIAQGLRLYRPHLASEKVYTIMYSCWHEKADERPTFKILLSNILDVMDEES

SMILES | DC50 [1, 4] | Dmax [1, 5] | IC50 [2] | IC50 [3] | Dmax [1] | DC50 ([1]; BTK degradation)
NC1=NC=NC2C1C(c1ccc(Oc3ccccc3)cc1)=NN2C1CCN(C2CN(C(=O)N3CC(C4CN(c5ccc6c(c5)C(=O)N(C5CCC(=O)NC5=O)C6=O)C4)C3)C2)CC1 (centres unmarked) [Compound 499, 5-(1′-(3-(4-(4-amino-3-(4-phenoxyphenyl)-3a,7a-dihydro-1H-pyrazolo[3,4-d]pyrimidin-1-yl)piperidin-1-yl)azetidine-1-carbonyl)-[3,3′-biazetidin]-1-yl)-2-(2,6-dioxopiperidin-3-yl)isoindoline-1,3-dione] | 10 to 50 nM | > 75% | < 1000 nM | 1000 to 10000 nM | – | –
NC(=O)c1c(-c2ccc(Oc3ccccc3)cc2)nn2c1NCC[C@H]2C1CCN(C(=O)N2CCN(CCN3CCN(c4ccc5c(c4)C(=O)N(C4CCC(=O)NC4=O)C5=O)CC3)CC2)CC1 (stereo partly drawn) [Compound 297, (7S)-7-(1-(4-(2-(4-(2-(2,6-dioxopiperidin-3-yl)-1,3-dioxoisoindolin-5-yl)piperazin-1-yl)ethyl)piperazine-1-carbonyl)piperidin-4-yl)-2-(4-phenoxyphenyl)-4,5,6,7-tetrahydropyrazolo[1,5-a]pyrimidine-3-carboxamide] | – | – | 1000 to 10000 nM | 1000 to 10000 nM | > 90% | 10 to 50 nM
NC1=NC=NC2C1C(c1ccc(Oc3ccccc3)cc1)=NN2C1CCN(C(=O)N2CCN(C3CN(c4ccc5c(c4)CN(C4CCC(=O)NC4=O)C5=O)C3)CC2)CC1 (centres unmarked) [Compound 504, 3-(5-(3-(4-(4-(4-amino-3-(4-phenoxyphenyl)-3a,7a-dihydro-1H-pyrazolo[3,4-d]pyrimidin-1-yl)piperidine-1-carbonyl)piperazin-1-yl)azetidin-1-yl)-1-oxoisoindolin-2-yl)piperidine-2,6-dione] | < 10 nM | > 90% | < 1000 nM | < 1000 nM | – | –
Nc1ncnc2c1c(-c1ccc(Oc3ccccc3)cc1)nn2C1CCN(C2CCN(CCCC3CCN(c4ccc5c(c4)C(=O)N(C4CCC(=O)NC4=O)C5=O)CC3)CC2)CC1 (centres unmarked) [Compound 225, 5-(4-(3-(4-(4-amino-3-(4-phenoxyphenyl)-1H-pyrazolo[3,4-d]pyrimidin-1-yl)-[1,4′-bipiperidin]-1′-yl)propyl)piperidin-1-yl)-2-(2,6-dioxopiperidin-3-yl)isoindoline-1,3-dione] | – | – | > 10000 nM | > 10000 nM | > 75% | > 50 nM
NC(=O)c1c(-c2ccc(Oc3ccccc3)cc2)nn2c1NCC[C@H]2C1CCN(CC2CCN(CC3CCN(c4ccc5c(c4)C(=O)N(C4CCC(=O)NC4=O)C5=O)CC3)CC2)CC1 (stereo partly drawn) [Compound 329, (7S)-7-(1-((1-((1-(2-(2,6-dioxopiperidin-3-yl)-1,3-dioxoisoindolin-5-yl)piperidin-4-yl)methyl)piperidin-4-yl)methyl)piperidin-4-yl)-2-(4-phenoxyphenyl)-4,5,6,7-tetrahydropyrazolo[1,5-a]pyrimidine-3-carboxamide] | – | – | > 10000 nM | > 10000 nM | > 75% | 10 to 50 nM
Nc1ncnc2c1c(-c1ccc(Oc3ccccc3)cc1)nn2C1CCC(C(=O)N2CC(C3CCN(c4ccc5c(c4)CN(C4CCC(=O)NC4=O)C5=O)CC3)C2)CC1 (centres unmarked) [Compound 514, 3-(5-(4-(1-(4-(4-amino-3-(4-phenoxyphenyl)-1H-pyrazolo[3,4-d]pyrimidin-1-yl)cyclohexane-1-carbonyl)azetidin-3-yl)piperidin-1-yl)-1-oxoisoindolin-2-yl)piperidine-2,6-dione] | < 10 nM | > 90% | < 1000 nM | < 1000 nM | – | –
Nc1ncnc2c1c(-c1ccc(Oc3ccccc3)cc1)nn2C1CCN(C2CCN(C(=O)N3CCN(CCC4CCN(c5ccc6c(c5)C(=O)N(C5CCC(=O)NC5=O)C6=O)CC4)CC3)CC2)CC1 (centres unmarked) [Compound 247, 5-(4-(2-(4-(4-(4-amino-3-(4-phenoxyphenyl)-1H-pyrazolo[3,4-d]pyrimidin-1-yl)-[1,4′-bipiperidine]-1′-carbonyl)piperazin-1-yl)ethyl)piperidin-1-yl)-2-(2,6-dioxopiperidin-3-yl)isoindoline-1,3-dione] | – | – | 1000 to 10000 nM | 1000 to 10000 nM | > 75% | 10 to 50 nM
Nc1ncnc2c1c(-c1ccc(Oc3ccccc3)cc1)nn2C1CCN(CC2CCN(CCCN3CCN(c4ccc5c(c4)CN(C4CCC(=O)NC4=O)C5=O)CC3)CC2)CC1 (centres unmarked) [Compound 208, 3-(5-(4-(3-(4-((4-(4-amino-3-(4-phenoxyphenyl)-1H-pyrazolo[3,4-d]pyrimidin-1-yl)piperidin-1-yl)methyl)piperidin-1-yl)propyl)piperazin-1-yl)-1-oxoisoindolin-2-yl)piperidine-2,6-dione] | – | – | > 10000 nM | > 10000 nM | > 75% | > 50 nM
Nc1ncnc2c1c(-c1ccc(Oc3ccccc3)cc1)nn2C1CCN(CCN2CCC(CN3CCN(c4ccc(N5CCC(=O)NC5=O)cc4)CC3)C2)CC1 (centres unmarked) [Compound 549, 1-(4-(4-((1-(2-(4-(4-amino-3-(4-phenoxyphenyl)-1H-pyrazolo[3,4-d]pyrimidin-1-yl)piperidin-1-yl)ethyl)pyrrolidin-3-yl)methyl)piperazin-1-yl)phenyl)dihydropyrimidine-2,4(1H,3H)-dione] | < 10 nM | > 90% | < 1000 nM | < 1000 nM | – | –
Nc1ncnc2c1c(-c1ccc(Oc3ccccc3)cc1)nn2C1CCN(C2CCN(CCCN3CCC(c4ccc(NC5CCC(=O)NC5=O)cc4)CC3)CC2)CC1 (centres unmarked) [Compound 580, 3-((4-(1-(3-(4-(4-amino-3-(4-phenoxyphenyl)-1H-pyrazolo[3,4-d]pyrimidin-1-yl)-[1,4′-bipiperidin]-1′-yl)propyl)piperidin-4-yl)phenyl)amino)piperidine-2,6-dione] | < 10 nM | > 90% | < 1000 nM | < 1000 nM | – | –
Nc1ncnc2c1c(-c1ccc(Oc3ccccc3)cc1)nn2[C@@H]1CCCN(C(=O)CCCN2CCN(c3ccc4c(c3)C(=O)N(C3CCC(=O)NC3=O)C4=O)CC2)C1 (stereo partly drawn) [Compound 525, 5-(4-(4-((R)-3-(4-amino-3-(4-phenoxyphenyl)-1H-pyrazolo[3,4-d]pyrimidin-1-yl)piperidin-1-yl)-4-oxobutyl)piperazin-1-yl)-2-(2,6-dioxopiperidin-3-yl)isoindoline-1,3-dione] | < 10 nM | > 90% | 1000 to 10000 nM | < 1000 nM | – | –
NC(=O)c1c(-c2ccc(Oc3ccccc3)cc2)nn2c1NCC[C@H]2C1CCN(C2CCN(C(=O)N3CCC(C4CCN(c5ccc6c(c5)C(=O)N(C5CCC(=O)NC5=O)C6=O)CC4)CC3)CC2)CC1 (stereo partly drawn) [Compound 383, (7S)-7-(1′-(1′-(2-(2,6-dioxopiperidin-3-yl)-1,3-dioxoisoindolin-5-yl)-[4,4′-bipiperidine]-1-carbonyl)-[1,4′-bipiperidin]-4-yl)-2-(4-phenoxyphenyl)-4,5,6,7-tetrahydropyrazolo[1,5-a]pyrimidine-3-carboxamide] | – | – | < 1000 nM | < 1000 nM | > 90% | 10 to 50 nM
Nc1ncnc2c1c(-c1ccc(Oc3ccccc3)cc1)nn2C1CCN(C[C@H]2CCN(CC3CCN(c4ccc5c(c4)C(=O)N(C4CCC(=O)NC4=O)C5=O)CC3)C2)CC1 (stereo partly drawn) [Compound 445a, 5-(4-(((R)-3-((4-(4-amino-3-(4-phenoxyphenyl)-1H-pyrazolo[3,4-d]pyrimidin-1-yl)piperidin-1-yl)methyl)pyrrolidin-1-yl)methyl)piperidin-1-yl)-2-(2,6-dioxopiperidin-3-yl)isoindoline-1,3-dione] | 10 to 50 nM | > 90% | 1000 to 10000 nM | 1000 to 10000 nM | – | –
NC(=O)c1c(-c2ccc(Oc3ccccc3)cc2)nn2c1NCCC2C1CCN(C2CCN(CCN3CCC(c4ccc5c(c4)C(=O)N(C4CCC(=O)NC4=O)C5=O)CC3)CC2)CC1 (centres unmarked) [Compound 311, 7-(1′-(2-(4-(2-(2,6-dioxopiperidin-3-yl)-1,3-dioxoisoindolin-5-yl)piperidin-1-yl)ethyl)-[1,4′-bipiperidin]-4-yl)-2-(4-phenoxyphenyl)-4,5,6,7-tetrahydropyrazolo[1,5-a]pyrimidine-3-carboxamide] | – | – | > 10000 nM | > 10000 nM | > 75% | > 50 nM
Nc1ncnc2c1c(-c1ccc(Oc3ccccc3)cc1)nn2C1CCN(CCN2CCC(CN3CCC(c4ccc5c(c4)oc(=O)n5C4CCC(=O)NC4=O)CC3)C2)CC1 (centres unmarked) [Compound 542, 3-(6-(1-((1-(2-(4-(4-amino-3-(4-phenoxyphenyl)-1H-pyrazolo[3,4-d]pyrimidin-1-yl)piperidin-1-yl)ethyl)pyrrolidin-3-yl)methyl)piperidin-4-yl)-2-oxobenzo[d]oxazol-3(2H)-yl)piperidine-2,6-dione] | 10 to 50 nM | > 75% | 1000 to 10000 nM | 1000 to 10000 nM | – | –
NC(=O)c1c(-c2ccc(Oc3ccccc3)cc2)nn2c1NCCC2C1CCN(CC2CCN(C(=O)N3CCN(C4CCN(c5ccc6c(c5)C(=O)N(C5CCC(=O)NC5=O)C6=O)CC4)CC3)CC2)CC1 (centres unmarked) [Compound 361, 7-(1-((1-(4-(1-(2-(2,6-dioxopiperidin-3-yl)-1,3-dioxoisoindolin-5-yl)piperidin-4-yl)piperazine-1-carbonyl)piperidin-4-yl)methyl)piperidin-4-yl)-2-(4-phenoxyphenyl)-4,5,6,7-tetrahydropyrazolo[1,5-a]pyrimidine-3-carboxamide] | – | – | 1000 to 10000 nM | 1000 to 10000 nM | > 90% | 10 to 50 nM
NC(=O)c1c(-c2ccc(Oc3ccccc3)cc2)nn2c1NCCC2C1CCN(CC2CCN(C(=O)N3CCN(c4ccc5c(c4)CN(C4CCC(=O)NC4=O)C5=O)CC3)CC2)CC1 (centres unmarked) [Compound 358, 7-(1-((1-(4-(2-(2,6-dioxopiperidin-3-yl)-1-oxoisoindolin-5-yl)piperazine-1-carbonyl)piperidin-4-yl)methyl)piperidin-4-yl)-2-(4-phenoxyphenyl)-4,5,6,7-tetrahydropyrazolo[1,5-a]pyrimidine-3-carboxamide] | – | – | > 10000 nM | > 10000 nM | > 50% | > 50 nM
